Measurements published in ChEMBL document CHEMBL1201862, “PubChem BioAssay data set” (2004).
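Results reflect a 48-hour exposure of cells in 96-well plates to compound at five concentrations. The concentration for 50% growth inhibition is given as GI50.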 Active and inactive are the calls of the source. Cut-off read from the data, not from the text of the source: active = GI50 up to about 1.1 µM and inactive = higher.

Assays:
Assay in all cases: growth of human tumour cells (NCI), 48 h
786-0 = tested on: 786-0
A549 = tested on: A549
CAKI-1 = tested on: CAKI-1
CCRF-CEM = tested on: CCRF-CEM
COLO 205 = tested on: COLO 205
DU-145 = tested on: DU-145
EKVX = tested on: EKVX
HCC 2998 = tested on: HCC 2998
HCT-15 = tested on: HCT-15
HL-60 = tested on: HL-60
HOP-62 = tested on: HOP-62
HT-29 = tested on: HT-29
IGROV-1 = tested on: IGROV-1
K562 = tested on: K562
KM12 = tested on: KM12
LOX IMVI = tested on: LOX IMVI
M14 = tested on: M14
MCF7 = tested on: MCF7
MDA-MB-231 = tested on: MDA-MB-231
MDA-N = tested on: MDA-N
MOLT-4 = tested on: MOLT-4
Malme-3M = tested on: Malme-3M
NCI-H23 = tested on: NCI-H23
OVCAR-8 = tested on: OVCAR-8
PC-3 = tested on: PC-3
RPMI-8226 = tested on: RPMI-8226
RXF 393 = tested on: RXF 393
SF-268 = tested on: SF-268
SF-295 = tested on: SF-295
SK-MEL-28 = tested on: SK-MEL-28
SK-MEL-5 = tested on: SK-MEL-5
SK-OV-3 = tested on: SK-OV-3
SN12C = tested on: SN12C
SNB-75 = tested on: SNB-75
SR = tested on: SR
SW-620 = tested on: SW-620
T47D = tested on: T47D
TK-10 = tested on: TK-10
UACC-257 = tested on: UACC-257
UACC-62 = tested on: UACC-62
A498 = tested on: A498
ACHN = tested on: ACHN
HCT-116 = tested on: HCT-116
Hs-578T = tested on: Hs-578T
MDA-MB-435 = tested on: MDA-MB-435
NCI-H226 = tested on: NCI-H226
NCI-H460 = tested on: NCI-H460
NCI-H522 = tested on: NCI-H522
NCI/ADR-RES = tested on: NCI/ADR-RES
OVCAR-3 = tested on: OVCAR-3
OVCAR-4 = tested on: OVCAR-4
OVCAR-5 = tested on: OVCAR-5
SF-539 = tested on: SF-539
SK-MEL-2 = tested on: SK-MEL-2
SNB-19 = tested on: SNB-19
U-251 = tested on: U-251
UO-31 = tested on: UO-31

CN1CCN(c2cc3nsnc3c3nsnc23)CC1
GI50 (786-0): > 10 µM (inactive)
GI50 (A549): > 10 µM (inactive)
GI50 (CAKI-1): > 10 µM (inactive)
GI50 (CCRF-CEM): > 10 µM (inactive)
GI50 (COLO 205): > 10 µM (inactive)
GI50 (DU-145): > 10 µM (inactive)
GI50 (EKVX): > 10 µM (inactive)
GI50 (HCC 2998): > 10 µM (inactive)
GI50 (HCT-15): > 10 µM
GI50 (HL-60): > 10 µM (inactive)
GI50 (HOP-62): > 10 µM (inactive)
GI50 (HT-29): > 10 µM (inactive)
GI50 (IGROV-1): > 10 µM (inactive)
GI50 (K562): > 10 µM (inactive)
GI50 (KM12): > 10 µM (inactive)
GI50 (LOX IMVI): > 10 µM (inactive)
GI50 (M14): > 10 µM (inactive)
GI50 (MCF7): > 10 µM (inactive)
GI50 (MDA-MB-231): > 10 µM (inactive)
GI50 (MDA-N): > 10 µM (inactive)
GI50 (MOLT-4): > 10 µM (inactive)
GI50 (Malme-3M): > 10 µM (inactive)
GI50 (NCI-H23): > 10 µM (inactive)
GI50 (OVCAR-8): > 10 µM (inactive)
GI50 (PC-3): > 10 µM (inactive)
GI50 (RPMI-8226): > 10 µM (inactive)
GI50 (RXF 393): > 10 µM (inactive)
GI50 (SF-268): > 10 µM (inactive)
GI50 (SF-295): > 10 µM (inactive)
GI50 (SK-MEL-28): > 10 µM (inactive)
GI50 (SK-MEL-5): > 10 µM (inactive)
GI50 (SK-OV-3): > 10 µM (inactive)
GI50 (SN12C): > 10 µM (inactive)
GI50 (SNB-75): > 10 µM (inactive)
GI50 (SR): > 10 µM (inactive)
GI50 (SW-620): > 10 µM (inactive)
GI50 (T47D): > 10 µM (inactive)
GI50 (TK-10): > 10 µM (inactive)
GI50 (UACC-257): > 10 µM (inactive)
GI50 (UACC-62): > 10 µM (inactive)

Nc1nc(N)c2nc(CNc3ccc(C(=O)NC(CCC(=O)O)C(=O)O)cc3F)cnc2n1 (configuration not stated)
GI50 (786-0): < 0.01 µM (active)
GI50 (A498): < 0.01 µM (active)
GI50 (A549): < 0.01 µM (active)
GI50 (ACHN): < 0.01 µM (active)
GI50 (CAKI-1): < 0.01 µM (active)
GI50 (CCRF-CEM): < 0.01 µM (active)
GI50 (COLO 205): > 48.2 µM (inactive)
GI50 (DU-145): < 0.01 µM (active)
GI50 (EKVX): < 0.01 µM (active)
GI50 (HCT-116): < 0.01 µM (active)
GI50 (HCT-15): < 0.01 µM
GI50 (HL-60): < 0.01 µM (active)
GI50 (HOP-62): < 0.01 µM (active)
GI50 (HT-29): < 0.01 µM (active)
GI50 (Hs-578T): > 100 µM (inactive)
GI50 (IGROV-1): < 0.01 µM (active)
GI50 (K562): < 0.01 µM (active)
GI50 (KM12): < 0.01 µM (active)
GI50 (LOX IMVI): < 0.01 µM (active)
GI50 (M14): < 0.01 µM (active)
GI50 (MCF7): < 0.01 µM (active)
GI50 (MDA-MB-231): > 57.9 µM (inactive)
GI50 (MDA-MB-435): < 0.01 µM (active)
GI50 (MDA-N): < 0.01 µM (active)
GI50 (MOLT-4): < 0.01 µM (active)
GI50 (NCI-H226): > 100 µM (inactive)
GI50 (NCI-H23): < 0.01 µM (active)
GI50 (NCI-H460): < 0.01 µM (active)
GI50 (NCI-H522): < 0.01 µM (active)
GI50 (NCI/ADR-RES): < 0.01 µM (active)
GI50 (OVCAR-3): 45.1 µM (inactive)
GI50 (OVCAR-4): > 81.7 µM (inactive)
GI50 (OVCAR-5): > 100 µM (inactive)
GI50 (OVCAR-8): < 0.01 µM (active)
GI50 (RPMI-8226): < 0.01 µM (active)
GI50 (RXF 393): > 100 µM (inactive)
GI50 (SF-268): < 0.01 µM (active)
GI50 (SF-295): < 0.01 µM (active)
GI50 (SF-539): < 0.01 µM (active)
GI50 (SK-MEL-28): > 100 µM (inactive)
GI50 (SK-MEL-2): > 59 µM (inactive)
GI50 (SK-MEL-5): < 0.0128 µM (active)
GI50 (SK-OV-3): > 100 µM (inactive)
GI50 (SN12C): < 0.01 µM (active)
GI50 (SNB-19): < 0.01 µM (active)
GI50 (SNB-75): 16.1 µM (inactive)
GI50 (SR): < 0.01 µM (active)
GI50 (SW-620): < 0.01 µM (active)
GI50 (T47D): < 0.01 µM (active)
GI50 (TK-10): > 100 µM (inactive)
GI50 (U-251): < 0.01 µM (active)
GI50 (UACC-257): > 100 µM (inactive)
GI50 (UACC-62): < 0.01 µM (active)
GI50 (UO-31): < 0.01 µM (active)

CC(CN(C)C)Nc1c2ccccc2nc2cccc([N+](=O)[O-])c12 (configuration not stated)
GI50 (NCI-H522): < 0.0153 µM (active)
GI50 (RXF 393): < 0.01 µM (active)
GI50 (SK-MEL-2): < 0.01 µM (active)
